# In patent US9732072B2, “PRMT5 inhibitors and uses thereof” (Epizyme, Inc., priority 2012, dated 2017):
# Tested on: Z-138 cell line
# Test: Z-138 Proliferation Assay (Cell Titer Glo)
# Assay type: cell-based
# Conditions: Homo sapiens, 120 h; Z-138 cells, 5 days, top concentration 20 μM
# Excerpt: [formula] Z-138 Proliferation Assay
# Z-138 suspension cells were purchased from ATCC (American Type Culture Collection, Manassas, Va.). RPMI/Glutamax medium, penicillin-streptomycin, heat inactivated fetal bovine serum were purchased from Life Technologies, Grand Island, N.Y., USA. V-bottom polypropylene 384-well plates were purchased from Greiner Bio-One, Monroe, N.C., USA. Cell culture 384-well white opaque plates were purchased from Perkin Elmer, Waltham, Mass., USA. Cell-Titer Glo® was purchased from Promega Corporation, Madison, Wis., USA. SpectraMax M5 plate reader was purchased from Molecular Devices LLC, Sunnyvale, Calif., USA. […]
# For the assessment of the effect of compounds on the proliferation of the Z-138 cell line, exponentially growing cells were plated in 384-well white opaque plates at a density of 10,000 cells/ml in a final volume of 50 μl of assay medium. […] Cell viability was measured by quantitation of ATP present in the cell cultures, adding 35 μl of Cell Titer Glo® reagent to the cell plates. Luminescence was read in the SpectraMax M5 microplate reader. The concentration of compound inhibiting cell viability by 50% was determined using a 4-parametric fit of the normalized dose response curves.
row,SMILES,EC50
1,"CN1CCOc2cccc(OCC(=O)NCC(O)CN3Cc4ccccc4C3)c21 (stereo not shown) [Compound 10, N-(2-hydroxy-3-(isoindolin-2-yl)propyl)-2-((4-methyl-3,4-dihydro-2H-benzo[b][1,4]oxazin-5-yl)oxy)acetamide]",> 20000 nM

# Target: PRMT5/MEP50 (Homo sapiens (Human), UniProt O14744)
# Sequence (O14744 other isoform, or with tags, fused parts or gaps): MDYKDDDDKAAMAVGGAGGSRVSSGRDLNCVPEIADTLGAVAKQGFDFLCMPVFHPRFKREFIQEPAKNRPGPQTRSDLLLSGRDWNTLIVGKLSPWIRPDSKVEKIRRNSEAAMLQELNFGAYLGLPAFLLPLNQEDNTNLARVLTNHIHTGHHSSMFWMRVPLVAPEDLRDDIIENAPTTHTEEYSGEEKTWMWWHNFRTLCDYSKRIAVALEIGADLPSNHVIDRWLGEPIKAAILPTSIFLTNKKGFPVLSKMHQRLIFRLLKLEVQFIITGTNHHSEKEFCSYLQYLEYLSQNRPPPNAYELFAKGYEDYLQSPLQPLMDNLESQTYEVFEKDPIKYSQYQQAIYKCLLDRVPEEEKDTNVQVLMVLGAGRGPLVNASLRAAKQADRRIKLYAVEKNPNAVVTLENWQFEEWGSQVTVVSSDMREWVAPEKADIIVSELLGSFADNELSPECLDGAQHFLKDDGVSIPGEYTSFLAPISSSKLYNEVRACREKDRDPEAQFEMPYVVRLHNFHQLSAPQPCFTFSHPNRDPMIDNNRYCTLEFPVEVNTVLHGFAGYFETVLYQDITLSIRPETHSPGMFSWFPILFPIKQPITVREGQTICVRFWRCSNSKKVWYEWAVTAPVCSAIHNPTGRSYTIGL
# Sequence (Q9BQA1 other isoform, or with tags, fused parts or gaps partner): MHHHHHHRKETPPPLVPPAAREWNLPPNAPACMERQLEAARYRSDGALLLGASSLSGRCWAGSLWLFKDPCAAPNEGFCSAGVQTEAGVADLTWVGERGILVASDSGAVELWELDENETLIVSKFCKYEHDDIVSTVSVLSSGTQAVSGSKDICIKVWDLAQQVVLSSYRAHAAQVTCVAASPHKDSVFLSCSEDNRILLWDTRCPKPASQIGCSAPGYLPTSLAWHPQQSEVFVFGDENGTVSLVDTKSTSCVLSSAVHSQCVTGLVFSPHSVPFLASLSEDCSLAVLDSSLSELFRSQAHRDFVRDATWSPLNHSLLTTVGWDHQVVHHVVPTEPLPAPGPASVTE
# Test: PRMT5 Biochemical Assay (PRMT5/MEP50 enzyme assay on peptide substrate, 3H-SAM Flashplate)
# Conditions: PRMT5/MEP50 4 nM, 3H-SAM 75 nM, peptide 40 nM
# Excerpt: S-adenosylmethionine (SAM), S-adenosylhomocysteine (SAH), bicine, KCl, Tween20, dimethylsulfoxide (DMSO), bovine skin gelatin (BSG), and Tris(2-carboxyethyl)phosphine hydrochloride solution (TCEP) were purchased from Sigma-Aldrich at the highest level of purity possible. ^3H-SAM was purchase from American Radiolabeled Chemicals with a specific activity of 80 Ci/mmol. 384-well streptavidin Flashplates were purchased from PerkinElmer.
# Peptide representative of human histone H4 residues 1-15 was synthesized with a C-terminal linker-affinity tag motif and a C-terminal amide cap by 21st Century Biochemicals. The peptide was high high-performance liquid chromatography (HPLC) purified to greater than 95% purity and confirmed by liquid chromatography mass spectrometry (LC-MS). The sequence was Ac-[…][K-Biot]-amide (SEQ ID NO.:3).
# Full-length human PRMT5 (NM_006109.3) transcript variant 1 clone was amplified from a fetal brain cDNA library, incorporating flanking 5′ sequence encoding a FLAG tag ([…]) (SEQ ID NO.:4) fused directly to Ala 2 of PRMT5. Full-length human MEP50 (NM_024102) clone was amplified from a human testis cDNA library incorporating a 5′ sequence encoding a 6-histidine tag (MHHHHHH) (SEQ ID NO.:5) fused directly to Arg 2 of MEP50. The amplified genes were sublconed into pENTR/D/TEV (Life Technologies) and subsequently transferred by Gateway™ attL×attR recombination to pDEST8 baculvirus expression vector (Life Technologies).
# Recombinant baculovirus and Baculovirus-Infected Insect Cells (BIIC) were generated according to Bac-to-Bac kit instructions (Life Technologies) and Wasilko, 2006, respectively. Protein over-expression was accomplished by infecting exponentially growing Spodoptera frugiperda (SF9) cell culture at 1.2×10^6 cell/ml with a 5000 fold dilution of BIIC stock. Infections were carried out at 27° C. for 72 hours, harvested by centrifugation, and stored at −80° C. for purification.
# Flag-PRMT5/6His-MeP50 was eluted with 300 mM Imidazole in the same buffer. The purity of recovered protein was 87%. Reference: Wasilko, D. J. and S. E. Lee: “TIPS: titerless infected-cells preservation and scale-up” Bioprocess J., 5 (2006), pp. 29-32.
# General Procedure for PRMT5/MEP50 Enzyme Assays on Peptide Substrates.
# The assays were all performed in a buffer consisting of 20 mM Bicine (pH=7.6), 1 mM TCEP, 0.005% BSG, and 0.002% Tween20, prepared on the day of use. Compounds in 100% DMSO (1 ul) were spotted into a polypropylene 384-well V-bottom plates (Greiner) using a Platemate Plus outfitted with a 384-channel head (Thermo Scientific). DMSO (1 ul) was added to Columns 11, 12, 23, 24, rows A-H for the maximum signal control and 1 ul of SAH, a known product and inhibitor of PRMT5/MEP50, was added to columns 11, 12, 23, 24, rows I-P for the minimum signal control. A cocktail (40 ul) containing the PRMT5/MEP50 enzyme and the peptide was added by Multidrop Combi (Thermo-Fisher). The compounds were allowed to incubate with PRMT5/MEP50 for 30 min at 25 degrees Celsius, then a cocktail (10 ul) containing ^3H-SAM was added to initiate the reaction (final volume=51 ul). The final concentrations of the components were as follows: PRMT5/MEP50 was 4 nM, ^3H-SAM was 75 nM, peptide was 40 nM, SAH in the minimum signal control wells was 100 uM, and the DMSO concentration was 1%. The assays were stopped by the addition of non-radioactive SAM (10 ul) to a final concentration of 600 uM, which dilutes the ^3H-SAM to a level where its incorporation into the peptide substrate is no longer detectable. 50 ul of the reaction in the 384-well polypropylene plate was then transferred to a 384-well Flashplate and the biotinylated peptides were allowed to bind to the streptavidin surface for at least 1 hour before being washed three times with 0.1% Tween20 in a Biotek ELx405 plate washer. […]
row,SMILES,IC50
1,C[C@H](Oc1cccc2cccnc12)C(=O)NC[C@H](O)CN1Cc2ccccc2C1 [Compound 1],1000 to 10000 nM
2,"C[C@@H](Oc1cccc2cccnc12)C(=O)NC[C@@H](O)CN1Cc2ccccc2C1 [Compound 3, (R)—N—((R)-2-hydroxy-3-(isoindolin-2-yl)propyl)-2-(quinolin-8-yloxy)propanamide]",1000 to 10000 nM
3,C[C@H](Oc1cccc2cccnc12)C(=O)NC[C@@H](O)CN1Cc2ccccc2C1 [Compound 6],> 10000 nM
4,"CN1CCOc2cccc(OCC(=O)NCC(O)CN3Cc4ccccc4C3)c21 (stereo not shown) [Compound 10, N-(2-hydroxy-3-(isoindolin-2-yl)propyl)-2-((4-methyl-3,4-dihydro-2H-benzo[b][1,4]oxazin-5-yl)oxy)acetamide]",101 to 1000 nM
5,Cn1cnc2ccc(-c3cccc(OC[C@@H](O)CN4Cc5ccccc5C4)c3)cc21 [Compound 14],10000 to 50000 nM
6,"Cn1cnc2ccc(-c3cccc(OC[C@H](O)CN4Cc5ccccc5C4)c3)cc21 [Compound 17, (R)-1-(isoindolin-2-yl)-3-(3-(1-methyl-1H-benzo[d]imidazol-6-yl)phenoxy)propan-2-ol]",1000 to 10000 nM
7,CN(C)S(=O)(=O)c1ccccc1OCC(=O)NC[C@@H](O)CN1Cc2ccccc2C1 [Compound 21],101 to 1000 nM
8,CN1CCOc2cccc(OCC(=O)NC[C@@H](O)CN3Cc4ccccc4C3)c21 [Compound 22],101 to 1000 nM
9,CN(C)S(=O)(=O)c1ccccc1OCC(=O)NC[C@H](O)CN1Cc2ccccc2C1 [Compound 23],< 100 nM
10,Cn1ncc2ccc(OCC(=O)NC[C@@H](O)CN3Cc4ccccc4C3)cc21 [Compound 25],10000 to 50000 nM
11,CN1CCOc2cccc(OCC(=O)NC[C@H](O)CN3Cc4ccccc4C3)c21 [Compound 26],101 to 1000 nM
12,Cn1ncc2ccc(OCC(=O)NC[C@H](O)CN3Cc4ccccc4C3)cc21 [Compound 27],101 to 1000 nM
13,O=C(NC[C@H](O)CN1Cc2ccccc2C1)c1ccnc(NC2CCOCC2)c1 [Compound 30],< 100 nM

# Tested on: Symmetric Di-Methyl Arginine in Z-138 cells
# Test: Z-138 Methylation Assay (In Cell Western for symmetric di-methyl arginine)
# Assay type: cell-based
# Conditions: Homo sapiens, 96 hours incubation, read-out: ICW EC50
# Excerpt: [formula] Where top and bottom are the normally allowed to float, but may be fixed at 100 or 0 respectively in a 3-parameter fit. The Hill Coefficient normally allowed to float but may also be fixed at 1 in a 3-parameter fit. Y is the % inhibition and X is the compound concentration. Z-138 Methylation Assay
# Z-138 suspension cells were purchased from ATCC (American Type Culture Collection, Manassas, Va.). RPMI/Glutamax medium, penicillin-streptomycin, heat inactivated fetal bovine serum, and D-PBS were purchased from Life Technologies, Grand Island, N.Y., USA. Odyssey blocking buffer, 800CW goat anti-rabbit IgG (H+L) antibody, and Licor Odyssey infrared scanner were purchased from Licor Biosciences, Lincoln, Nebr., USA. Symmetric di-methyl arginine antibody was purchased from EMD Millipore, Billerica, Mass., USA. […]
# First, the ratio for each well was determined by:
# Each plate included fourteen control wells of DMSO only treatment (minimum inhibition) as well as fourteen control wells for maximum inhibition treated with 3 μM of a reference compound (Background wells). The average of the ratio values for each control type was calculated and used to determine the percent inhibition for each test well in the plate. […] Percent inhibition was determined and IC50 curves were generated using triplicate wells per concentration of compound. […]
row,SMILES,EC50
1,O=C(NCC(O)CN1Cc2ccccc2C1)c1cccc(NC2CCOCC2)c1 (stereo not shown) [Compound 8],101 to 1000 nM
2,"CN1CCOc2cccc(OCC(=O)NCC(O)CN3Cc4ccccc4C3)c21 (stereo not shown) [Compound 10, N-(2-hydroxy-3-(isoindolin-2-yl)propyl)-2-((4-methyl-3,4-dihydro-2H-benzo[b][1,4]oxazin-5-yl)oxy)acetamide]",101 to 1000 nM
